Test results reported in patent publication US8916557B2, “Substituted 4-Aryl-N-phenyl-1,3,5-triazin-2-amines” (Bayer Intellectual Property GmbH, priority 2011, dated 2014).

Key:
CDK2/CycE = target: T1, CDK2/CycE (Homo sapiens, UniProt P24941); experiment: CDK2/CycE kinase assay (TR-FRET); type: biochemical; details: Method 2, 10 μM ATP
T1 construct: GST; purchased ProQinase GmbH (Freiburg, Germany); host or cells: insect cells (Sf9)
Text: 2. CDK2/CycE Kinase Assay:
CDK2/CycE-inhibitory activity of compounds of the present invention was quantified employing the CDK2/CycE TR-FRET assay as described in the following paragraphs:
Recombinant fusion proteins of GST and human CDK2 and of GST and human CycE, expressed in insect cells (Sf9) and purified by Glutathion-Sepharose affinity chromatography, were purchased from ProQinase GmbH (Freiburg, Germany). As substrate for the kinase reaction biotinylated peptide biotin-Ttds-[…] (C-terminus in amid form) was used which can be purchased e.g. form the company JERINI Peptide Technologies (Berlin, Germany).
For the assay 50 nl of a 100fold concentrated solution of the test compound in DMSO was pipetted into a black low volume 384well microtiter plate (Greiner Bio-One, Frickenhausen, Germany), 2 μl of a solution of CDK2/CycE in aqueous assay buffer [50 mM Tris/HCl pH 8.0, 10 mM MgCl2, 1.0 mM dithiothreitol, 0.1 mM sodium ortho-vanadate, 0.01% (v/v) Nonidet-P40 (Sigma)] were added and the mixture was incubated for […] at 22° C. to allow pre-binding of the test compounds to the enzyme before the start of the kinase reaction. Then the kinase reaction was started by the addition of 3 μl of a solution of adenosine-tri-phosphate (ATP, 16.7 μM=>final conc. in the 5 it assay volume is 10 μM) and substrate (1.25 μM=>final conc. in the 5 it assay volume is 0.75 μM) in assay buffer and the resulting mixture was incubated for a reaction time of […] at 22° C. The concentration of CDK2/CycE was adjusted depending of the activity of the enzyme lot and was chosen appropriate to have the assay in the linear range, typical concentrations were in the range of 130 ng/ml. The reaction was stopped by the addition of 5 it of a solution of TR-FRET detection reagents (0.2 μM streptavidine-XL665 [Cisbio Bioassays, Codolet, France] and 1 nM anti-RB(pSer807/pSer811)-antibody from BD Pharmingen [#558389] and 1.2 nM LANCE EU-W1024 labeled anti-mouse IgG antibody [Perkin-Elmer, product no. AD0077]) in an aqueous EDTA-solution (100 mM EDTA, 0.2% (w/v) bovine serum albumin in 100 mM HEPES/NaOH pH 7.0).
(§1) The resulting mixture was incubated 1 h at 22° C. to allow the formation of complex between the phosphorylated biotinylated peptide and the detection reagents. Subsequently the amount of phosphorylated substrate was evaluated by measurement of the resonance energy transfer from the Eu-chelate to the streptavidine-XL. Therefore, the fluorescence emissions at 620 nm and 665 nm after excitation at 350 nm was measured in a TR-FRET reader, e.g. a Rubystar (BMG Labtechnologies, Offenburg, Germany) or a Viewlux (Perkin-Elmer). The ratio of the emissions at 665 nm and at 622 nm was taken as the measure for the amount of phosphorylated substrate.

CDK9/CycT1 = target: T2, CDK9/CycT1 (Homo sapiens, UniProt P50750); experiment: CDK9/CycT1 kinase assay (TR-FRET); type: biochemical; details: Method 1, 10 μM ATP
T2 construct: Recombinant full-length His-tagged human CDK9 and CycT1; His; purchased Invitrogen PV4131; host or cells: insect cells
Text: 1. CDK9/CycT1 Kinase Assay:
CDK9/CycT1-inhibitory activity of compounds of the present invention was quantified employing the CDK9/CycT1 TR-FRET assay as described in the following paragraphs:
Recombinant full-length His-tagged human CDK9 and CycT1, expressed in insect cells and purified by Ni-NTA affinity chromatography, were purchased from Invitrogen (Cat. No PV4131). As substrate for the kinase reaction biotinylated peptide biotin-Ttds-[…] (C-terminus in amid form) was used which can be purchased e.g. form the company JERINI Peptide Technologies (Berlin, Germany). For the assay 50 nl of a 100fold concentrated solution of the test compound in DMSO was pipetted into a black low volume 384well microtiter plate (Greiner Bio-One, Frickenhausen, Germany), 2 μl of a solution of CDK9/CycT1 in aqueous assay buffer [50 mM Tris/HCl pH 8.0, 10 mM MgCl2, 1.0 mM dithiothreitol, 0.1 mM sodium ortho-vanadate, 0.01% (v/v) Nonidet-P40 (Sigma)] were added and the mixture was incubated for 15 min at 22° C. to allow pre-binding of the test compounds to the enzyme before the start of the kinase reaction. Then the kinase reaction was started by the addition of 3 μl of a solution of adenosine-tri-phosphate (ATP, 16.7 μM=>final conc. in the 5 μl assay volume is 10 μM) and substrate (1.67 μM=>final conc. in the 5 μl assay volume is 1 μM) in assay buffer and the resulting mixture was incubated for a reaction time of 25 min at 22° C. The concentration of CDK9/CycT1 was adjusted depending of the activity of the enzyme lot and was chosen appropriate to have the assay in the linear range, typical concentrations were in the range of 1 μg/ml. The reaction was stopped by the addition of 5 μl of a solution of TR-FRET detection reagents (0.2 μM streptavidine-XL665 [Cisbio Bioassays, Codolet, France] and 1 nM anti-RB(pSer807/pSer811)-antibody from BD Pharmingen [#558389] and 1.2 nM LANCE EU-W1024 labeled anti-mouse IgG antibody [Perkin-Elmer, product no. AD0077]) in an aqueous EDTA-solution (100 mM EDTA, 0.2% (w/v) bovine serum albumin in 100 mM HEPES/NaOH pH 7.0).
as §1, with “HTRF” for “TR-FRET”

T2 sequence (P50750 whole entry): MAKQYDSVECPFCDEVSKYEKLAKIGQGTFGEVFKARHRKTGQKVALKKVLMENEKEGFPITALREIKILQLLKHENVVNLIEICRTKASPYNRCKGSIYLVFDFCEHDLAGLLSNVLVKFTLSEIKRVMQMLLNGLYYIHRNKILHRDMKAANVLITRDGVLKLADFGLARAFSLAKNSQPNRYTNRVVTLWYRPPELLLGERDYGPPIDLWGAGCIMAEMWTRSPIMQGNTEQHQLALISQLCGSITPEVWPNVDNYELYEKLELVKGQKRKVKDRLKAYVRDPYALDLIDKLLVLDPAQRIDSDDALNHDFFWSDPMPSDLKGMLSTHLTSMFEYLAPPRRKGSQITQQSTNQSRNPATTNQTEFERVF
T2 sequence (O60563 whole entry partner): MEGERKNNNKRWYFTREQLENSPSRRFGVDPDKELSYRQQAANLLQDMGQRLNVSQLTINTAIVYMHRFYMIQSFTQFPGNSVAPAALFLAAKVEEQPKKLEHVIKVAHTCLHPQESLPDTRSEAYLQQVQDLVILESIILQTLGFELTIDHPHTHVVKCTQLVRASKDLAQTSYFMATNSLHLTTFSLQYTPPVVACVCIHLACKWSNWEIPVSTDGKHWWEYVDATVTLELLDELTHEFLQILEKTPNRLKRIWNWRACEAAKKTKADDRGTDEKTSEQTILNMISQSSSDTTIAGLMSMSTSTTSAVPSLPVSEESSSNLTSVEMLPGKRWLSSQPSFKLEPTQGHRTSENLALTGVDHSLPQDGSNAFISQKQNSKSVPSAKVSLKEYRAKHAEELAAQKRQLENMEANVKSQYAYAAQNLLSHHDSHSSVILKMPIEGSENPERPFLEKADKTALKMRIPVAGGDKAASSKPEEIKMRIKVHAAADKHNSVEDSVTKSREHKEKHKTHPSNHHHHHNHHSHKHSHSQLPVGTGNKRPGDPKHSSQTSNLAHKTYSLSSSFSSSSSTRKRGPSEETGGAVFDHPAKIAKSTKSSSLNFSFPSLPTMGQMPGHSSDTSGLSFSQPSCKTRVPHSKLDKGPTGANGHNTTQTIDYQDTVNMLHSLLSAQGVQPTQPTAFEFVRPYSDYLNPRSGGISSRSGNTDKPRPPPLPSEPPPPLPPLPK

Row | SMILES | IC50 (CDK2/CycE) | IC50 (CDK9/CycT1)
1 | COc1c(-c2ncnc(Nc3cccc(CS(C)(=O)=O)c3)n2)ccc(F)c1F [Example 2, 4-(3,4-Difluoro-2-methoxyphenyl)-N-{3-[(methylsulfonyl)methyl]phenyl}-1,3,5-triazin-2-amine] | 8600 nM | 160 nM
2 | CS(=O)(=O)Cc1cccc(Nc2ncnc(-c3cccc4c3OC(F)(F)O4)n2)c1 [Example 6, 4-(2,2-Difluoro-1,3-benzodioxol-4-yl)-N-{3-[(methylsulfonyl)methyl]phenyl}-1,3,5-triazin-2-amine] | 1300 nM | 33 nM
3 | CS(=O)(=O)Cc1cccc(Nc2ncnc(-c3ccccc3OC(F)(F)F)n2)c1 [Example 7, N-{3-[(Methylsulfonyl)methyl]phenyl}-4-[2-(trifluoromethoxy)phenyl]-1,3,5-triazin-2-amine] | 5400 nM | 330 nM
4 | CS(=O)(=O)Cc1cccc(Nc2ncnc(-c3ccccc3OCC(F)(F)F)n2)c1 [Example 16, N-{3-[(Methylsulfonyl)methyl]phenyl}-4-[2-(2,2,2-trifluoroethoxy)phenyl]-1,3,5-triazin-2-amine] | 8300 nM | 74 nM
5 | COc1cc(F)ccc1-c1ncnc(Nc2cccc(CS(=O)(=O)C(C)(C)C)c2)n1 [Example 17, N-{3-[(tert-Butylsulfonyl)methyl]phenyl}-4-(4-fluoro-2-methoxyphenyl)-1,3,5-triazin-2-amine] | 2000 nM | 47 nM
6 | CS(=O)(=O)Cc1cccc(Nc2ncnc(-c3cccc4c3OC(F)(F)C(F)(F)O4)n2)c1 [Example 19, N-{3-[(Methylsulfonyl)methyl]phenyl}-4-(2,2,3,3-tetrafluoro-2,3-dihydro-1,4-benzodioxin-5-yl)-1,3,5-triazin-2-amine] | 640 nM | 35 nM
7 | COc1ncccc1-c1ncnc(Nc2cccc(CS(C)(=O)=O)c2)n1 [Example 20, 4-(2-Methoxypyridin-3-yl)-N-{3-[(methylsulfonyl)methyl]phenyl}-1,3,5-triazin-2-amine] | 8200 nM | 110 nM
8 | CS(=O)(=O)Cc1cccc(Nc2ncnc(-c3ccccc3OCc3ccccc3Cl)n2)c1 [Example 27, 4-{2-[(2-Chlorobenzyl)oxy]phenyl}-N-{3-[(methylsulfonyl)methyl]phenyl}-1,3,5-triazin-2-amine] | 8800 nM | 87 nM
9 | CS(=O)(=O)Cc1cccc(Nc2ncnc(-c3cc(F)ccc3OCc3ccccc3F)n2)c1 [Example 30, 4-{5-Fluoro-2-[(2-fluorobenzyl)oxy]phenyl}-N-{3-[(methylsulfonyl)methyl]phenyl}-1,3,5-triazin-2-amine] | 6600 nM | 32 nM
10 | COc1cc(Cl)ccc1-c1ncnc(Nc2cccc(CS(C)(=O)=O)c2)n1 [Example 32, 4-(4-Chloro-2-methoxyphenyl)-N-{3-[(methylsulfonyl)methyl]phenyl}-1,3,5-triazin-2-amine] | 2300 nM | 25 nM
11 | COc1cc(F)ccc1-c1ncnc(Nc2cccc(CS(=O)(=O)c3ccccc3)c2)n1 [Example 35, 4-(4-Fluoro-2-methoxyphenyl)-N-{3-[(phenylsulfonyl)methyl]phenyl}-1,3,5-triazin-2-amine] | 2200 nM | 30 nM

Further lines, results first:

Row | IC50 (CDK2/CycE) | IC50 (CDK9/CycT1) | SMILES
12 | 1400 nM | 25 nM | CC(C)Oc1cc(F)ccc1-c1ncnc(Nc2cccc(CS(C)(=O)=O)c2)n1 [Example 5, 4-[4-Fluoro-2-(propan-2-yloxy)phenyl]-N-{3-[(methylsulfonyl)methyl]phenyl}-1,3,5-triazin-2-amine]
13 | 1300 nM | 33 nM | COc1ccc(F)cc1-c1ncnc(Nc2cccc(CS(C)(=O)=O)c2)n1 [Example 11, 4-(5-Fluoro-2-methoxyphenyl)-N-{3-[(methylsulfonyl)methyl]phenyl}-1,3,5-triazin-2-amine]
14 | 3900 nM | 130 nM | CS(=O)(=O)Cc1cccc(Nc2ncnc(-c3ccc(F)cc3OC(F)F)n2)c1 [Example 15, 4-[2-(Difluoromethoxy)-4-fluorophenyl]-N-{3-[(methylsulfonyl)methyl]phenyl}-1,3,5-triazin-2-amine]
15 | 8800 nM | 110 nM | CS(=O)(=O)Cc1cccc(Nc2ncnc(-c3cc(F)ccc3OCC3CCOCC3)n2)c1 [Example 21, 4-[5-Fluoro-2-(tetrahydro-2H-pyran-4-ylmethoxy)phenyl]-N-{3-[(methylsulfonyl)methyl]phenyl}-1,3,5-triazin-2-amine]
16 | 9400 nM | 80 nM | CCOCCOc1cc(F)ccc1-c1ncnc(Nc2cccc(CS(C)(=O)=O)c2)n1 [Example 51, 4-[2-(2-Ethoxyethoxy)-4-fluorophenyl]-N-{3-[(methylsulfonyl)methyl]phenyl}-1,3,5-triazin-2-amine]
17 | 7400 nM | 170 nM | CS(=O)(=O)Cc1cccc(Nc2ncnc(-c3ccc(F)cc3OCCC3CCCCC3)n2)c1 [Example 63, 4-[2-(2-Cyclohexylethoxy)-4-fluorophenyl]-N-{3-[(methylsulfonyl)methyl]phenyl}-1,3,5-triazin-2-amine]
18 | 1800 nM | 34 nM | CS(=O)(=O)Cc1cccc(Nc2ncnc(-c3ccc(F)cc3OC3CCC3)n2)c1 [Example 64, 4-[2-(Cyclobutyloxy)-4-fluorophenyl]-N-{3-[(methylsulfonyl)methyl]phenyl}-1,3,5-triazin-2-amine]
19 | 2300 nM | 36 nM | CS(=O)(=O)Cc1cccc(Nc2ncnc(-c3ccc(F)cc3OC3CCCC3)n2)c1 [Example 65, 4-[2-(Cyclopentyloxy)-4-fluorophenyl]-N-{3-[(methylsulfonyl)methyl]phenyl}-1,3,5-triazin-2-amine]
20 | 6800 nM | 22 nM | CS(=O)(=O)Cc1cccc(Nc2ncnc(-c3ccc(F)cc3OCC3(F)CCCCC3)n2)c1 [Example 66, 4-{4-Fluoro-2-[(1-fluorocyclohexyl)-methoxy]phenyl}-N-{3-[(methylsulfonyl)-methyl]phenyl}-1,3,5-triazin-2-amine]
